According to US10143748B2, “B-cell reduction using CD37-specific and CD20-specific binding molecules” (Emergent Product Development Seattle, LLC, priority 2005, dated 2018):

Key:
C1q = biological target: T1, C1q (Homo sapiens, UniProt P02745+P02746+P02747); assay: FITC C1q binding to reagent-coated Ramos B cells in normal human serum; settings: normal human serum 1.25-10%, FIG. 3A
T1 construct: normal human serum (NHS, #A113, Quidel Corp., San Diego, Calif.); tissue Quidel Corp. A113; host or cells: normal human serum (purchased), added to reagent-coated Ramos B cells
T1 sequence (P02745 23-245): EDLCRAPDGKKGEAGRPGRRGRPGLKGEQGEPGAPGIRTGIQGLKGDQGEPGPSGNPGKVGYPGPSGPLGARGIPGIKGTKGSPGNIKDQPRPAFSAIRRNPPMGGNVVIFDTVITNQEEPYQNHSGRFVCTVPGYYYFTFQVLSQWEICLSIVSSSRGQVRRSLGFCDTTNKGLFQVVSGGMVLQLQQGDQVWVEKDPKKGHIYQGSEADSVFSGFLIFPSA
T1 sequence (P02746 28-253): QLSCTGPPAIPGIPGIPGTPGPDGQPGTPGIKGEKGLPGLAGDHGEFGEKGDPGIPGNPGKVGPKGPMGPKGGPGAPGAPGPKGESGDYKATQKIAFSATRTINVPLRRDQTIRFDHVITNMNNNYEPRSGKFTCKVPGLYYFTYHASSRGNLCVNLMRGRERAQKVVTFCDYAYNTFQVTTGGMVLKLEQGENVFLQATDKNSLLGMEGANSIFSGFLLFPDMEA
T1 sequence (P02747 29-245): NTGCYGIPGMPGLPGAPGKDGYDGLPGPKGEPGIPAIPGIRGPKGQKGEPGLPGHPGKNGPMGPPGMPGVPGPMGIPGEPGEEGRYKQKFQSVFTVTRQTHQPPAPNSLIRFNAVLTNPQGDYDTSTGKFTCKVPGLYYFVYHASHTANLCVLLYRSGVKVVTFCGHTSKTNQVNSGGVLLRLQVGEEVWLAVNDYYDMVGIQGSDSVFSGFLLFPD
Method: C1q binding studies were performed as previously described (Cragg et al., Blood 2004, 103:2738-2743). Briefly, Ramos B-cells in Iscoves media (#12440-053, Gibco/Invitrogen, Grand island, NY) with no serum were plated in 96-well V bottom plates at 5×10^5/well in 100 μl. Cells were incubated with reagents for 15 minutes at 37° C., and normal human serum (NHS, #A113, Quidel Corp., San Diego, Calif.) diluted in Iscoves was then added at a volume of 50 μl to each well for a final concentration of 10, 5, 2.5, or 1.25% human serum. Fifty μl of media was added to the control well. For cobra venom factor (CVF) experiments, CVF was added to human serum complement samples at 20 Units CVF/mL of serum for 90 minutes at 37° C. prior to addition of serum to complement assays, and the dilution of serum by CVF accounted for when making sample dilutions.
The cells plus complement source were incubated for an additional 5 minutes at 37° C., and washed 2 times with cold PBS (#14040-133, Gibco/Invitrogen, Grand Island, N.Y.) via centrifugation and resuspended in 100 μl of PBS. Fifty μl from each well was transferred to a second plate for second step control staining. […] Samples were washed, resuspended in cold PBS, and read immediately on a FACsCalibur flow cytometer and analyzed with Cell Quest software (Becton Dickinson, San Jose, Calif.).

Ramos B cells [1] = assay: CDC assay, Ramos B cells with human serum complement, propidium iodide; format: cell-based; settings: for CDC activity with human complement, single reagent: Ramos B cells, human serum
Method: (§1) The cells were incubated 60 minutes at 37° C. […] Samples were incubated 15 minutes at room temperature in the dark prior to analysis by flow cytometry using a FACsCalibur and CellQuest software (Becton Dickinson).
as §1

BJAB B cells = assay: ADCC 51Cr release assay, BJAB targets, human PBMC effectors; format: cell-based; settings: 10 ng/mL to 20 μg/mL, effector:target 25:1, 6 hours, FIG. 5C
Method: To determine the ADCC activity of SEC fractions, BJAB, Ramos, and Daudi lymphoblastoid B cells (10^7) cells were labeled with 500 μCi/mL ^51Cr sodium chromate for 2 hours at 37° C. in IMDM/10% FBS. PBMCs were isolated from heparinized, human whole blood by fractionation over Lymphocyte Separation Media (LSM, ICN Biomedical) gradients. Reagent samples were added to RPMI media with 10% FBS and five serial dilutions for each reagent were prepared. For combinations, the reagents were premixed and diluted prior to addition to the wells. The ^51Cr labeled BJAB were added at (2×10^4 cells/well). The PBMCs were then added at (5×10^5 cells/well) for a final ratio of 25:1 effectors (PBMC):targets (BJAB). […] CPM released was measured on a Packard TopCounNXT from 50 μl dried culture supernatant. Percent specific killing was calculated by subtracting (cpm [mean of quadruplicate samples] of sample—cpm spontaneous release)/(cpm maximal release-cpm spontaneous release)×100 (FIG. 5C).
BJAB, Ramos, and Daudi lymphoblastoid B cells (10E7) cells were labeled with 500 μCi/mL ^51Cr sodium chromate for 2 hours at 37° C. in IMDM/10% FBS. […] Cells were counted by trypan blue exclusion using a hemacytometer prior to use in subsequent assays. […]
Effectors and targets were added to media alone to measure background killing. […] CPM released was measured on a Packard TopCounNXT. […]

CD37 = biological target: T2, CD37 (Homo sapiens, UniProt P11049); assay: binding of TRU-016 SEC fractions to Ramos cells, flow cytometry; parameters: Ramos cells expressing the CD20 and CD37 target antigens; endogenous in cells; host or cells: Ramos B-cell lymphoma line; settings: FITC goat anti-human IgG, FIG. 5A
T2 sequence (P11049 1-281): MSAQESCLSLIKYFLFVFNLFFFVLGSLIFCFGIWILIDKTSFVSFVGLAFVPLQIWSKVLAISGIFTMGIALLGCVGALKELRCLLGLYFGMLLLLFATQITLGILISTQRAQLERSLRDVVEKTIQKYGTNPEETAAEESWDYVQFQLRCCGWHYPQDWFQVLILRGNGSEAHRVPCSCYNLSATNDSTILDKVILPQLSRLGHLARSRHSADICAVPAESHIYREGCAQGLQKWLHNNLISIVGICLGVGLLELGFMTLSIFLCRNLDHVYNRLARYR
Method: To determine the binding properties of SEC fractions, cells were suspended in staining media at a concentration of approximately 4×10^6 cells/mL and then plated at 50 μl/well (2×10^5 cells/well) in staining media. Serial dilutions of SEC fractions were then added to sequential wells, incubated for 45 minutes, washed, and binding activity was detected using FITC goat anti-human IgG. Samples were fixed in 200 μl 1% paraformaldehyde in PBS. Cells were analyzed by flow cytometry on a FACsCalibur instrument using Cell Quest software (BD Biosciences, San Jose, Calif.) (FIG. 5A).

Ramos B cells [2] = assay: CDC assay, Ramos B cells with rabbit complement; format: cell-based, human; settings: 10 μg/ml reagent, rabbit complement 10, 5 or 2.5%, FIG. 3C
Method: Human and rabbit complement were then compared for their CDC activity in the presence of the TRU-016. The CDC activity of TRU-016 molecular forms incubated with Ramos B cells and human or rabbit complement was measured (FIG. 3C). Ramos B cells were added to wells in serum free media. […] Cells plus complement source were incubated 90 minutes at 37° C. Cells were washed once with cold PBS and propidium iodide (Molecular Probes #P3566) added to a final concentration of 0.5 μg/mL in cold PBS. Cells with PI were incubated in the dark at RT for 15 minutes and analyzed by flow cytometry.

Ramos cells = assay: ADCC assay, labeled Ramos targets, human PBMC effectors; format: cell-based; settings: effector to target ratio 25:1, FIG. 18D
Method: To determine the ADCC activity of SEC fractions, BJAB, Ramos, and Daudi lymphoblastoid B cells (10^7) cells were labeled with 500 μCi/mL ^51Cr sodium chromate for 2 hours at 37° C. in IMDM/10% FBS. PBMCs were isolated from heparinized, human whole blood by fractionation over Lymphocyte Separation Media (LSM, ICN Biomedical) gradients. Reagent samples were added to RPMI media with 10% FBS and five serial dilutions for each reagent were prepared. For combinations, the reagents were premixed and diluted prior to addition to the wells. The ^51Cr labeled BJAB were added at (2×10^4 cells/well). The PBMCs were then added at (5×10^5 cells/well) for a final ratio of 25:1 effectors (PBMC):targets (BJAB). Reactions were set up in quadruplicate wells of a 96 well plate. TRU-016 SEC fractions were added to wells at a final concentration ranging from 10 ng/mL to 20 μg/mL as indicated on the graphs. Each data series plots a different SEC fraction at the titration ranges described. Reactions were allowed to proceed for 6 hours at 37° C. in 5% CO2 prior to harvesting and counting. CPM released was measured on a Packard TopCounNXT from 50 μl dried culture supernatant. Percent specific killing was calculated by subtracting (cpm [mean of quadruplicate samples] of sample—cpm spontaneous release)/(cpm maximal release-cpm spontaneous release)×100 (FIG. 5C).

Daudi cells = assay: Annexin V/PI apoptosis analysis, Daudi; format: cell-based, human
Method: Further experiments examining the effect of TRU-016 on B cell line apoptosis were performed using the more highly purified dimer form of TRU-016 (FIG. 19B). Samples were analyzed at both 24 and 48 hours after initiation of incubation reactions. Annexin/PI analysis was performed on several cell types using 20 μg/mL TRU-016 protein. Because apoptosis was reduced using the dimer form of TRU-016, 20 μg/mL goat anti-human IgG was added to reactions in order to cross link reagents on the cell surface. Cells were then stained with Annexin V-FITC and propidium iodide.

Row | Substance | FITC C1q binding (C1q) | CDC activity with human complement, single reagent (Ramos B cells [1]) | CDC cell killing in the presence of CVF (Ramos B cells [1]; human serum complement with cobra venom factor, FIG. 3B) | ADCC, % specific killing (BJAB B cells) | binding to Ramos cells (titration curves) (CD37) | CDC activity with human complement, single reagent (Ramos B cells [1]; listed as dimer form of the TRU-016) | CDC activity with human complement, single reagent (Ramos B cells [1]; listed as dimer peak) | CDC activity with rabbit complement (Ramos B cells [2]) | ADCC against Ramos cells (Ramos cells) | apoptosis of Daudi cells with crosslinking agent (Daudi cells; 20 μg/mL plus 20 μg/mL goat anti-human IgG) | apoptosis of Daudi cells (Daudi cells; 20 μg/mL, 24-48 hours, FIG. 19B)
1 | HMW multimer fraction: higher molecular weight multimers of TRU-016 separated by SEC | more binding than the other forms | significant levels of CDC activity | significantly reduced in the presence of CVF | potent, dose-dependent ADCC | better binding |  |  |  |  |  | 
2 | TRU-016 dimer peak: dimer form of TRU-016 isolated by GPC and HPLC fractionation from higher molecular weight multimers |  | poor mediator of CDC |  | potent, dose-dependent ADCC |  | very low CDC activity | very little or no CDC activity | good CDC | significant levels of ADCC | significant increase in the level of CD37 targeted apoptosis | induces apoptosis of Daudi cells
